According to PubChem BioAssay (NCI):
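Exposure lasted 48 hours, with cells grown in 96-well plates and compounds tested at five concentrations. Abbreviation: GI50, concentration required for 50% inhibition of growth. At the TGI there is no net growth.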

Legend:
Experiment in all cases: NCI anticancer screen, dose series, 48 h
ACHN renal = system: ACHN renal
SK-MEL-5 melanoma = system: SK-MEL-5 melanoma
OVCAR-3 ovarian = system: OVCAR-3 ovarian
A549 NSCLC = system: A549 NSCLC
BT-549 breast = system: BT-549 breast
HS 578T breast = system: HS 578T breast
SF-295 CNS = system: SF-295 CNS
NCI/ADR-RES ovarian = system: NCI/ADR-RES ovarian
MDA-MB-435 = system: MDA-MB-435
MOLT-4 leukemia = system: MOLT-4 leukemia
SNB-19 CNS = system: SNB-19 CNS
HOP-62 NSCLC = system: HOP-62 NSCLC
UACC-62 melanoma = system: UACC-62 melanoma
K-562 leukemia = system: K-562 leukemia
SK-MEL-28 melanoma = system: SK-MEL-28 melanoma
OVCAR-8 ovarian = system: OVCAR-8 ovarian
NCI-H23 lung = system: NCI-H23 lung
U251 CNS = system: U251 CNS
RPMI-8226 leukemia = system: RPMI-8226 leukemia
NCI-H522 lung = system: NCI-H522 lung
TK-10 renal = system: TK-10 renal
CCRF-CEM leukemia = system: CCRF-CEM leukemia
T-47D breast = system: T-47D breast
HCT-116 colon = system: HCT-116 colon
COLO 205 colon = system: COLO 205 colon
MCF7 breast = system: MCF7 breast
A498 renal = system: A498 renal
PC-3 prostate = system: PC-3 prostate
HCC-2998 colon = system: HCC-2998 colon
LOX IMVI melanoma = system: LOX IMVI melanoma
SNB-75 CNS = system: SNB-75 CNS
HOP-92 NSCLC = system: HOP-92 NSCLC
SR leukemia = system: SR leukemia
MDA-MB-231 breast = system: MDA-MB-231 breast
RXF 393 renal = system: RXF 393 renal
HL-60(TB) leukemia = system: HL-60(TB) leukemia
NCI-H226 lung = system: NCI-H226 lung
786-0 renal = system: 786-0 renal
SK-MEL-2 melanoma = system: SK-MEL-2 melanoma
CAKI-1 renal = system: CAKI-1 renal
OVCAR-5 ovarian = system: OVCAR-5 ovarian
KM12 colon = system: KM12 colon
NCI-H460 lung = system: NCI-H460 lung
SF-539 CNS = system: SF-539 CNS
SW-620 colon = system: SW-620 colon
SK-OV-3 ovarian = system: SK-OV-3 ovarian
EKVX NSCLC = system: EKVX NSCLC
M14 melanoma = system: M14 melanoma
IGROV1 ovarian = system: IGROV1 ovarian
UO-31 renal = system: UO-31 renal
UACC-257 melanoma = system: UACC-257 melanoma
SN12C renal = system: SN12C renal
HT29 colon = system: HT29 colon
MALME-3M melanoma = system: MALME-3M melanoma
DU-145 prostate = system: DU-145 prostate
MDA-MB-468 breast = system: MDA-MB-468 breast
SF-268 CNS = system: SF-268 CNS
HCT-15 colon = system: HCT-15 colon
OVCAR-4 ovarian = system: OVCAR-4 ovarian

COc1cnc2c(c1)C(=O)c1c-2n(CCCNCCO)c(=O)c2cc(F)ccc12
GI50 (ACHN renal): 0.175 µM | TGI (ACHN renal): 0.465 µM | GI50 (SK-MEL-5 melanoma): 0.477 µM | TGI (SK-MEL-5 melanoma): 1.64 µM | GI50 (OVCAR-3 ovarian): 0.819 µM | TGI (OVCAR-3 ovarian): 6.51 µM | GI50 (A549 NSCLC): 0.198 µM | TGI (A549 NSCLC): 1.1 µM | GI50 (BT-549 breast): 0.969 µM | TGI (BT-549 breast): 4.04 µM | GI50 (HS 578T breast): 2.02 µM | TGI (HS 578T breast): 12.4 µM | GI50 (SF-295 CNS): 0.306 µM | TGI (SF-295 CNS): 1.23 µM | GI50 (NCI/ADR-RES ovarian): 0.678 µM | TGI (NCI/ADR-RES ovarian): 2.58 µM | GI50 (MDA-MB-435): 1.27 µM | TGI (MDA-MB-435): 4.52 µM | GI50 (MOLT-4 leukemia): 0.174 µM | TGI (MOLT-4 leukemia): 0.757 µM | GI50 (SNB-19 CNS): 0.666 µM | TGI (SNB-19 CNS): 8.06 µM | GI50 (HOP-62 NSCLC): 0.207 µM | TGI (HOP-62 NSCLC): 0.605 µM | GI50 (UACC-62 melanoma): 0.496 µM | TGI (UACC-62 melanoma): 1.83 µM | GI50 (K-562 leukemia): 0.28 µM | TGI (K-562 leukemia): 6.05 µM | GI50 (SK-MEL-28 melanoma): 1.92 µM | TGI (SK-MEL-28 melanoma): 5.69 µM | GI50 (OVCAR-8 ovarian): 0.555 µM | TGI (OVCAR-8 ovarian): 2.79 µM | GI50 (NCI-H23 lung): 0.259 µM | TGI (NCI-H23 lung): 0.785 µM | GI50 (U251 CNS): 0.268 µM | TGI (U251 CNS): 3.24 µM | GI50 (RPMI-8226 leukemia): 0.25 µM | TGI (RPMI-8226 leukemia): 1.88 µM | GI50 (NCI-H522 lung): 0.42 µM | TGI (NCI-H522 lung): 1.83 µM | GI50 (TK-10 renal): 1.47 µM | TGI (TK-10 renal): 4.18 µM | GI50 (CCRF-CEM leukemia): 0.206 µM | TGI (CCRF-CEM leukemia): 0.966 µM | GI50 (T-47D breast): 0.269 µM | TGI (T-47D breast): 1.55 µM | GI50 (HCT-116 colon): 0.183 µM | TGI (HCT-116 colon): 0.657 µM | GI50 (COLO 205 colon): 0.838 µM | TGI (COLO 205 colon): 2.77 µM | GI50 (MCF7 breast): 0.101 µM | TGI (MCF7 breast): 1.7 µM | GI50 (A498 renal): 1.44 µM | TGI (A498 renal): 7.88 µM | GI50 (PC-3 prostate): 0.667 µM | TGI (PC-3 prostate): 10.5 µM | GI50 (HCC-2998 colon): 0.549 µM | TGI (HCC-2998 colon): 1.7 µM | GI50 (LOX IMVI melanoma): 0.167 µM | TGI (LOX IMVI melanoma): 0.502 µM | GI50 (SNB-75 CNS): 0.778 µM | TGI (SNB-75 CNS): 5.31 µM | GI50 (HOP-92 NSCLC): 1.66 µM | TGI (HOP-92 NSCLC): 7.26 µM | GI50 (SR leukemia): 0.0971 µM | GI50 (MDA-MB-231 breast): 1.64 µM | TGI (MDA-MB-231 breast): 4.1 µM | GI50 (RXF 393 renal): 0.885 µM | TGI (RXF 393 renal): 2.54 µM | GI50 (HL-60(TB) leukemia): 0.19 µM | TGI (HL-60(TB) leukemia): 1.37 µM | GI50 (NCI-H226 lung): 0.452 µM | TGI (NCI-H226 lung): 1.32 µM | GI50 (786-0 renal): 0.277 µM | TGI (786-0 renal): 0.962 µM | GI50 (SK-MEL-2 melanoma): 2.36 µM | TGI (SK-MEL-2 melanoma): 4.36 µM | GI50 (CAKI-1 renal): 0.22 µM | TGI (CAKI-1 renal): 1.68 µM | GI50 (OVCAR-5 ovarian): 0.661 µM | TGI (OVCAR-5 ovarian): 2.42 µM | GI50 (KM12 colon): 0.872 µM | TGI (KM12 colon): 10.5 µM | GI50 (NCI-H460 lung): 0.198 µM | TGI (NCI-H460 lung): 0.908 µM | GI50 (SF-539 CNS): 0.326 µM | TGI (SF-539 CNS): 1.22 µM | GI50 (SW-620 colon): 0.367 µM | TGI (SW-620 colon): 2.61 µM | GI50 (SK-OV-3 ovarian): 0.668 µM | TGI (SK-OV-3 ovarian): 2.45 µM | GI50 (EKVX NSCLC): 1.21 µM | TGI (EKVX NSCLC): 5.14 µM | GI50 (M14 melanoma): 0.589 µM | TGI (M14 melanoma): 2.41 µM | GI50 (IGROV1 ovarian): 0.51 µM | TGI (IGROV1 ovarian): 2.68 µM | GI50 (UO-31 renal): 0.195 µM | TGI (UO-31 renal): 1.17 µM | GI50 (UACC-257 melanoma): 2.13 µM | TGI (UACC-257 melanoma): 7.97 µM | GI50 (SN12C renal): 0.287 µM | TGI (SN12C renal): 1.56 µM | GI50 (HT29 colon): 0.3 µM | TGI (HT29 colon): 1.38 µM | GI50 (MALME-3M melanoma): 0.851 µM | TGI (MALME-3M melanoma): 2.56 µM | GI50 (DU-145 prostate): 0.287 µM | TGI (DU-145 prostate): 3.59 µM | GI50 (MDA-MB-468 breast): 0.16 µM | TGI (MDA-MB-468 breast): 0.351 µM | GI50 (SF-268 CNS): 1.2 µM | TGI (SF-268 CNS): 11 µM | GI50 (HCT-15 colon): 0.328 µM | TGI (HCT-15 colon): 1.56 µM | GI50 (OVCAR-4 ovarian): 1.71 µM | TGI (OVCAR-4 ovarian): 8.65 µM
